In patent US10738093B2, “Discovery of cationic nonribosomal peptides as Gram-negative antibiotics through global genome mining” (The Hong Kong University of Science and Technology, priority 2018, dated 2020):
Converted amounts (≈) assume the structure as drawn. Like-named read-outs stand apart in the source and are kept apart here. Positions of bridges follow the written chain, without caps; N, C: chain ends. Non-standard residues stand in square brackets, D forms with d. Residues, ends and D or L forms follow the SMILES beside them. *: point of attachment. Octanoyl(7-Me) = CC(C)CCCCCC(=O)*; aThr = C[C@H](O)[C@H](N)C(=O)O; dOrn = NCCC[C@@H](N)C(=O)O; Orn = NCCC[C@H](N)C(=O)O

How the values were obtained:
[1] = system: Escherichia coli ATCC 25922; experiment: microbe, parasite or virus in culture; assay type: cell-based
Procedure: (§1) Minimum inhibitory concentration (MIC) was determined by broth microdilution according to CLSI guidelines. The test medium for most species was Mueller-Hinton broth (MHB). Bacteria were grown overnight to early stationary phase and adjusted in MHB to 5.0×10^5 colony-forming units per mL (c.f.u./mL) in the wells of 96-well microtiter plates, mixed with varying concentrations of test compounds and incubated at 37° C. for 24 h. […] MHBs containing 10% fetal bovine serum (Gibco), 21 mM MgCl, or 1.0 mg/ml LPS (lipopolysaccharides from Escherichia coli O55:B5, Sigma-Aldrich) were used to test their inhibitory effects.

[2] = system: K. pneumoniae NRRL-B-3521; assay type: cell-based, Klebsiella pneumoniae
Procedure: as §1

[3] = system: E. coli Top10; experiment: Time-kill assay; assay type: cell-based, Escherichia coli
Procedure: An overnight culture of E. coli Top10 or Pseudomonas aeruginosa PAO1 cells was diluted 1:10,000 in MHB and incubated at 37° C. with agitation at 180 rpm for 2 h (early exponential). The bacteria were then challenged with antibiotics at 10×MIC, brevicidine (20 μg/ml), laterocidine (20 μg/ml) or polymyxin B (10 μg/ml) at room temperature without shaking. An untreated sample of cells was used as a negative control. At intervals, 10 μL aliquots were removed, centrifuged at 10,000 g for 1 min and resuspended in 1.0 mL of sterile PBS. Tenfold-serially-diluted suspensions were plated on MHB agar plates and incubated at 37° C. overnight. Colonies were counted and the number of c.fu. per mL was calculated. For analysis of lysis, 300 μL of culture (OD600=1.0) were treated with 10×MIC of antibiotics for 24 h. Experiments were performed in triplicate.

[4] = system: Saccharomyces cerevisiae VL-48; experiment: MIC, Saccharomyces cerevisiae; assay type: cell-based; conditions: for MIC: Saccharomyces cerevisiae; for MIC Sc: Table 2, Saccharomyces cerevisiae VL-48
Procedure: as §1

[5] = system: E. coli Top10; experiment: Bacterial growth kinetics; assay type: cell-based, Escherichia coli; conditions: E. coli cells exposed to compound
Procedure: A fresh single colony of E. coli Top10 was inoculated into MHB (5 mL) and grown with shaking at 225 rpm overnight. The bacteria were diluted to 1×10^5 c.f.u./mL in fresh MHB, grown […] to early log-phase (OD=0.15) and treated with the antibiotics of interest in the wells of a 96-well plate. Final antibiotic concentrations varied from 1×MIC to 8×MIC. The plate was then incubated at 30° C. overnight, with OD 600 measurements taken every 30 seconds.

[6] = system: E. coli ATCC 25922; experiment: Neutropenic mouse thigh infection model; assay type: in vivo, Escherichia coli; conditions: brevicidine 30 mg/kg or laterocidine 15 mg/kg, 2 times, after 26 h
Procedure: In vivo activities of brevicidine and laterocidine were tested using the mouse thigh infection model. Animal studies were performed by Pharmacology Discovery Services Taiwan Ltd. (Taipei, Taiwan) in general accordance with standard guidelines on animal welfare in an AAALAC-accredited facility. The protocol was reviewed and approved by the Institutional Animal Care and Use Committee. Groups of five female specific-pathogen-free ICR (CD-1) mice weighing 22±2 g (˜5 weeks of age) were used. Animals were immunosuppressed with two intraperitoneal injections of cyclophosphamide, the first at 150 mg/kg 4 d before infection (day −4) and the second at 100 mg/kg 1 d before infection (day −1). On day 0, animals were inoculated intramuscularly (0.1 ml/thigh) in the right thigh with an E. coli ATCC 25922 suspension. Vehicle (10% DMSO, 1% Tween 80, 0.9% NaCl) and antibiotics were then subcutaneously injected 2 h and 8 h later. Due to limited amount of compounds 1-2, only one concentration of 1(30 mg/kg) or 2 (15 mg/kg) was used in this study. At 26 h after inoculation, animals were euthanized by CO2 asphyxiation before the muscle of the right thigh was harvested from each test animal. The removed muscle was homogenized in 5 mL of PBS, pH 7.4, with a polytron homogenizer. Homogenates in the amount of 0.1 mL were used for serial tenfold dilutions and plated onto a nutrient agar medium for colony count (c.f.u./g) determination.

[7] = system: E. cloacae NRRL-B-425; assay type: cell-based, Enterobacter cloacae
Procedure: as §1

[8] = system: Colistin-resistant E. coli (E. coli ATCC 25922 carrying mcr-1); assay type: cell-based, Escherichia coli
Procedure: as §1

[9] = system: E. coli Top10; assay type: cell-based, Escherichia coli
Procedure: as §1

[10] = system: Acinetobacter baumannii; assay type: cell-based
Procedure: as §1

[11] = system: Pseudomonas aeruginosa PAO1; assay type: cell-based
Procedure: as §1

[12] = system: Enterobacter cloacae NRRL-B-413; assay type: cell-based
Procedure: as §1

[13] = system: Methicillin-resistant Staphylococcus aureus ATCC 43300; assay type: cell-based; conditions: for MIC MRSA: Table 2, Methicillin-resistant Staphylococcus aureus ATCC 43300
Procedure: as §1

[14] = system: Klebsiella pneumoniae NRRL-B-408; assay type: cell-based
Procedure: as §1

[15] = system: Bacillus subtilis 168; assay type: cell-based
Procedure: as §1

[16] = system: Candida albicans; assay type: cell-based; conditions: for MIC Ca: Table 2
Procedure: as §1

[17] = system: Escherichia coli ATCC 25922; experiment: Resistance acquisition during serial passaging; assay type: cell-based; conditions: serial passaging at subinhibitory concentrations over 30 days
Procedure: Escherichia coli ATCC 25922 was inoculated into MHB overnight at 37° C. with continuous shaking. Cells were diluted 10,000 times in MHB to about 1×10^6 c.f.u./mL. […] Plates with bacteria were incubated at 37° C. without shaking. […] This process was repeated for 30 d, and the final MIC was confirmed by the same antibacterial assay described above. The experiment was performed in quadruplicate, and on each day, the sample that developed the highest resistance was measured to plot the curve.

[18] = system: E. coli ATCC 25922; experiment: Atomic force microscopy of treated E. coli; assay type: cell-based, Escherichia coli; conditions: E. coli ATCC25922, 10×MIC
Procedure: (§2) The samples were then centrifuged at 8000 g for 10 min at 4° C., and the pellet was washed twice in 100 lpL of apyrogenic water. The bacteria resuspended in 50 μL of apyrogenic water were applied to mica disks and dried overnight at 28° C. before imaging. Atomic force micrographs were recorded on a Veeco Mulitmode AFM with NanoScope III controller operating in contact mode. The data were analyzed with NanoScope Analysis software v.1.40 (Veeco, USA). Scans were acquired at 25° C. at the rates of 1.0 Hz and 256 samples per line resolution. Downstream image processing and analysis were performed using NanoScope software (Bruker). Height images were flattened to compensate for cell curvature, and topographical sections were used to generate two-dimensional reconstructions of surface texture.

[19] = system: P. aeruginosa PAO1; experiment: Atomic force microscopy of treated P. aeruginosa; assay type: cell-based, Pseudomonas aeruginosa
Procedure: as §2

[20] = LPS binding by isothermal titration calorimetry; set-up: species or system Escherichia coli; conditions: ITC, FIGS. 18a-18b
Procedure: Microcalorimetric experiments of peptide binding to LPS were performed on an MCS isothermal titration calorimeter (ITC) (Microcal, Northampton, Mass.) at 37° C. LPS was prepared as a 50 μM aqueous suspension in 20 mM HEPES (pH 7.0) buffer by suspension, sonication and temperature cycling between 5° C. and 70° C. This suspension was stored at 4° C. overnight prior to use. 100 μM peptide solutions (brevicidine and polymyxin B) were prepared in the same buffer and all solutions were degassed prior to use by stirring under vacuum for 5 min at 37° C. After thermal equilibration, 5 μL aliquots of the peptide solution were added every 3 min into the lipid-containing cell at 37° C. and stirred constantly. The change in heat during the titration steps was registered in real time and raw data were processed using the Origin® 7 software provided with the instrument. In control experiments, the corresponding peptide solution (or LPS solution) was injected into the buffer without LPS (or without peptide).

CC[C@H](C)[C@@H]1NC(=O)[C@@H](NC(=O)[C@H](Cc2c[nH]c3ccccc23)NC(=O)[C@@H](CCCN)NC(=O)CNC(=O)[C@H](CCCN)NC(=O)[C@@H](CCCN)NC(=O)[C@@H](Cc2c[nH]c3ccccc23)NC(=O)[C@@H](Cc2ccc(O)cc2)NC(=O)[C@@H](CO)NC(=O)CCCCCC(C)C)[C@H](C)OC(=O)CNC(=O)CNC(=O)[C@H](CC(N)=O)NC1=O [Compound 2, 7-Methyl-Octanoyl-D-Ser-D-Tyr-D-Trp-D-Orn-Orn-Gly-D-Orn-Trp-Thr-Ile-Asn-Gly-Gly (cyclized via lactone formation between Thr and the C-terminus)] ({Octanoyl(7-Me)}-[dS][dY][dW][dOrn][Orn]G[dOrn]W[aThr]INGG; ester 9-C)
MIC ([1]; ATCC 25922): 2 µg/mL (≈ 1.25 µM)
MIC Ec ([1]; ATCC 25922): 2 µg/mL (≈ 1.25 µM)
MIC ([2]; NRRL-B-3521): 4 µg/mL (≈ 2.49 µM)
time of exposure to significant reduction of viable cells ([3]; 10 times the MIC): 30 min
time of exposure to slightly reduced cell viability ([3]; 10 times the MIC): 15 min
bactericidal against E. coli ([3]; growth kinetics, time-kill assay and lysis assay): bactericidal
MIC [4]: >64 µg/mL
MIC Sc [4]: ND (ND >64 μg/ml)
time of growth at a reduced rate before steady decrease in cell count [5]: 30 min
bactericidal efficacy in mouse thigh infection (viable bacteria) [6]: reduced numbers of viable bacteria
MIC ([7]; NRRL-B-425): 3 µg/mL (≈ 1.87 µM)
MIC [8]: 2 µg/mL (≈ 1.25 µM)
MIC ([9]; Top10): 2 µg/mL (≈ 1.25 µM)
MIC [10]: 4 µg/mL (≈ 2.49 µM)
MIC Ab [10]: 4 µg/mL (≈ 2.49 µM)
MIC ([11]; PAO1): 2 µg/mL (≈ 1.25 µM)
MIC Pa ([11]; PAO1): 2 µg/mL (≈ 1.25 µM)
MIC ([12]; NRRL-B-413): 2 µg/mL (≈ 1.25 µM)
MIC En ([12]; NRRL-B-413): 2 µg/mL (≈ 1.25 µM)
MIC ([13]; ATCC 43300): >64 µg/mL
MIC MRSA [13]: ND (ND >64 μg/ml)
MIC ([14]; NRRL-B-408): 4 µg/mL (≈ 2.49 µM)
MIC [15]; 168: 32 µg/mL (≈ 19.9 µM)
MIC Bs [15]; 168: 32 µg/mL (≈ 19.9 µM)
MIC [16]: >64 µg/mL
MIC Ca ([16]; Candida albicans): ND (ND >64 μg/ml)
development of resistance [17]: development of resistance was not observed
cell morphology by AFM [18]: lost their regular rod-like shape and became lumpy and rugged
cell morphology by AFM [19]: lost their regular rod-like shape and became lumpy and rugged

polymyxin B [reference compound]
MIC ([1]; E. coli ATCC 25922 + 10% serum): 1 to 2 µg/mL
MIC ([1]; E. coli ATCC 25922 + LPS (1.0 mg L^−1)): >64 µg/mL
MIC ([1]; E. coli ATCC 25922 + Mg^2+ (21 mM)): >64 µg/mL
MIC ([1]; Escherichia coli ATCC 25922): 1 µg/mL
MIC Ec ([1]; Table 2, Escherichia coli ATCC 25922): 1 µg/mL
binding to LPS [20]: strong binding to LPS
MIC ([2]; K. pneumoniae NRRL-B-3521): 2 µg/mL
time of exposure to significant reduction of viable cells ([3]; 10 times the MIC): 5 min
time to killing all cells ([3]; 10 times the MIC): ≤ 30 min
MIC [4]: >64 µg/mL
MIC Sc [4]: ND (ND >64 μg/ml)
MIC ([7]; E. cloacae NRRL-B-425): 64 µg/mL
MIC [8]: 16 µg/mL
MIC ([9]; E. coli Top10): 2 µg/mL
MIC ([10]; Acinetobacter baumannii): 4 µg/mL
MIC Ab ([10]; Table 2, Acinetobacter baumannii): 4 µg/mL
MIC ([11]; Pseudomonas aeruginosa PAO1): 1 µg/mL
MIC Pa ([11]; Table 2, Pseudomonas aeruginosa PAO1): 1 µg/mL
MIC ([12]; Enterobacter cloacae NRRL-B-413): 8 µg/mL
MIC En ([12]; Table 2, Enterobacter cloacae NRRL-B-413): 8 µg/mL
MIC ([13]; Staphylococcus aureus (MRSA)): 32 µg/mL
MIC MRSA [13]: 32 µg/mL
MIC ([14]; Klebsiella pneumoniae NRRL-B-408): 16 µg/mL
MIC ([15]; Bacillus subtilis 168): 4 µg/mL
MIC Bs ([15]; Table 2, B. subtilis 168): 4 µg/mL
MIC ([16]; Candida albicans): >64 µg/mL
MIC Ca ([16]; Candida albicans): ND (ND >64 μg/ml)
